Laboratory results taken from US20130178488A1, “TRICYCLIC COMPOUNDS, PREPARATION METHODS, AND THEIR USES” (priority 2011, published 2013).

Biological target: T1, recombinant human Lp-PLA2 (Homo sapiens, UniProt Q13093)
T1 sequence (Q13093 22-441): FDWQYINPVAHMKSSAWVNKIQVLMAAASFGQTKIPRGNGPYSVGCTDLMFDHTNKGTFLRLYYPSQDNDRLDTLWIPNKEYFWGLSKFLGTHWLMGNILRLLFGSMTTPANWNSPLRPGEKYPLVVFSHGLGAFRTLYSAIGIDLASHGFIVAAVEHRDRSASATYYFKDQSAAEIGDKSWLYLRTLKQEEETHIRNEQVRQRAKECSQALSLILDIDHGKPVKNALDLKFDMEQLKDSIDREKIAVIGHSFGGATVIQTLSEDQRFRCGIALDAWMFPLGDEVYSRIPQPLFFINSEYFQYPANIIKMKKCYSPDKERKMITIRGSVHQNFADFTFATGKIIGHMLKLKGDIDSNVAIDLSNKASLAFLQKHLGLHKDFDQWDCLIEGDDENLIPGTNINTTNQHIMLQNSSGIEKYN
Test: Recombinant human Lp-PLA2 assay (rhLp-PLA2, PED6 assay)
Assay type: biochemical
Settings: one experiment or average of multiple experiments; upper limit of the PED6 assay is pIC50 9.3
Source text: (1) Recombinant Human Lp-PLA2 Assay (rhLp-PLA2) (Also Referred to as “PED6” Assay)
N-((6-(2,4-dinitrophenyl)amino)-hexanoyl)-2-(4,4-difluoro-5,7-dimethyl-4-bora-3a,4a-diaza-s-indacene-3-pentanoyl)-1-hexadecanoyl-sn-glycero-3-phosphoethanolamine, triethylammonium salt (PED6) is a commercially available fluorescently-labeled phospholipid, which is commercially available from Molecular Probes. There is a quenching para-nitro phenyl (PNP) group in the sn3 position and a Bodipy fluorescein (FL) group in the sn2 position. Upon cleavage with LpPLA2, the Bodipy Fl group is liberated and then may result in an increase in fluorescence. Inhibitors of LpPLA2 therefore prevent this cleavage and no fluorescent increase is observed.
The PED6 assay is run as an unquenched 10 μL assay. Compounds source plate is prepared by making 1:3 (by volume) serial dilution of the compounds into pure DMSO on 384-well microplate. Then 0.01 μL of compounds on compound source plate are transferred into 384 well Greiner 784076 (black) plates by ECHO liquid dispenser. 5 μL of recombinant human Lp-PLA2 enzyme (2 nM rhLp-PLA2 in assay buffer of 50 mM HEPES, pH7.4, 150 mM NaCl, 1 mM CHAPS) is added to each well of the plate with compounds. Plates are centrifuged for 10 sec at 500 rpm. After 30 minutes preincubation, 5 μL of substrate (4 μM PED6 [from 5 mM DMSO stock] in assay buffer of 50 mM HEPES, pH7.4, 150 mM NaCl, 1 mM CHAPS) is added to 384 well Greiner 784076 (black) plates. Plates are centrifuged for 10 sec at 500 rpm. Plate is covered to protect from light and incubated for 20 min at room temperature. Plates are read for Fluorescence intensity at ex: 480/em: 540 using ViewLux microplate imager. PIC50 data, curve and QC analysis is conducted by using XL fit module in Excel.

| IC50 [nM] | SMILES |
| --- | --- |
| 1 | O=c1nc(OCc2cc(F)c(Oc3ccc(C(F)(F)F)nc3)c(F)c2)cc2n1CCc1ccccc1-2 [Example 94, 2-((3,5-difluoro-4-((6-(trifluoromethyl)pyridin-3-yl)oxy)benzyl)oxy)-6,7-dihydro-4H-pyrimido[6,1-a]isoquinolin-4-one] |
| ≤ 0.501 | COc1ccc2c(c1)CCn1c-2cc(Oc2ccc(Oc3cccc(C(F)(F)F)c3)c(C#N)c2)nc1=O [Example E1, 5-((9-Methoxy-4-oxo-6,7-dihydro-4H-pyrimido[6,1-a]isoquinolin-2-yl)oxy)-2-(3-(trifluoromethyl)phenoxy)benzonitrile] |
| 0.631 | COc1ccc2c(c1)CCn1c-2cc(OCc2ccc(Oc3ccc(C(F)(F)F)cn3)c(C#N)c2)nc1=O [Example E22, 5-(((9-Methoxy-4-oxo-6,7-dihydro-4H-pyrimido[6,1-a]isoquinolin-2-yl)oxy)methyl)-2-((5-(trifluoromethyl)pyridin-2-yl)oxy)benzonitrile] |
| 1 | COc1ccc2c(c1)CCn1c-2cc(OCc2ccc(Oc3ccc(C(F)(F)F)nc3)c(C#N)c2)nc1=O [Example E36, 5-({[9-(Methyloxy)-4-oxo-6,7-dihydro-4H-pyrimido[6,1-a]isoquinolin-2-yl]oxy}methyl)-2-{[6-(trifluoromethyl)-3-pyridinyl]oxy}benzonitrile] |
| 1 | COc1ccc2c(c1)CCn1c-2cc(OCc2ccc(Oc3ccc(C(F)(F)F)nc3)c(F)c2)nc1=O [Example E58, 2-((3-fluoro-4-((6-(trifluoromethyl)pyridin-3-yl)oxy)benzyl)oxy)-9-methoxy-6,7-dihydro-4H-pyrimido[6,1-a]isoquinolin-4-one] |
| 1 | N#Cc1cc(COc2cc3n(c(=O)n2)CCc2cc(F)ccc2-3)ccc1Oc1ccc(C(F)(F)F)cn1 [Example 93, 5-(((9-fluoro-4-oxo-6,7-dihydro-4H-pyrimido[6,1-a]isoquinolin-2-yl)oxy)methyl)-2-((5-(trifluoromethyl)pyridin-2-yl)oxy)benzonitrile] |
| 0.794 | N#Cc1cc(COc2cc3n(c(=O)n2)CCc2cc(F)ccc2-3)ccc1Oc1ccc(Cl)c(C(F)(F)F)c1 [Example 92, 2-(4-chloro-3-(trifluoromethyl)phenoxy)-5-(((9-fluoro-4-oxo-6,7-dihydro-4H-pyrimido[6,1-a]isoquinolin-2-yl)oxy)methyl)benzonitrile] |
| 1 | N#Cc1cc(COc2cc3n(c(=O)n2)CCc2ccccc2-3)ccc1Oc1ccc(C(F)(F)F)nc1 [Example 91, 5-(((4-oxo-6,7-dihydro-4H-pyrimido[6,1-a]isoquinolin-2-yl)oxy)methyl)-2-((6-(trifluoro-methyl)pyridin-3-yl)oxy)benzonitrile] |
| 0.794 | N#Cc1cc(COc2cc3n(c(=O)n2)CCc2ccccc2-3)ccc1Oc1ccc(Cl)c(C(F)(F)F)c1 [Example 88, 2-(4-chloro-3-(trifluoromethyl)phenoxy)-5-(((4-oxo-6,7-dihydro-4H-pyrimido[6,1-a]isoquinolin-2-yl)oxy)methyl)benzonitrile] |
| 0.794 | N#Cc1cc(COc2cc3n(c(=O)n2)CCc2ccccc2-3)ccc1Oc1cccc(C(F)(F)F)n1 [Example 96, 5-(((4-oxo-6,7-dihydro-4H-pyrimido[6,1-a]isoquinolin-2-yl)oxy)methyl)-2-((6-(trifluoro-methyl)pyridin-2-yl)oxy)benzonitrile] |
| 3.16 | N#Cc1cc(COc2cc3n(c(=O)n2)CCc2cc(F)ccc2-3)ccc1Oc1cccc(C(F)(F)F)c1 [Example 89, 5-(((9-fluoro-4-oxo-6,7-dihydro-4H-pyrimido[6,1-a]isoquinolin-2-yl)oxy)methyl)-2-(3-(trifluoromethyl)phenoxy)benzonitrile] |
| ≤ 0.501 | O=c1nc(OCc2ccc(Oc3cnc(C(F)(F)F)nc3)c(F)c2)cc2n1CCc1cc(F)ccc1-2 [Example 98, 9-fluoro-2-((3-fluoro-4-((2-(trifluoromethyl)pyrimidin-5-yl)oxy)benzyl)oxy)-6,7-dihydro-4H-pyrimido[6,1-a]isoquinolin-4-one] |
